Source: patent US11141368B2, “Cosmetic composition, cosmetic treatment method, kit, and compound” (L'OREAL, priority 2010, dated 2021)

Key:
[1] = Improvement of hair straightening: leave-in post-treatment of alkaline-straightened hair, visual observation; details: 5% by weight in distilled water
From the text: Applied to hair (originally curly hair of curliness IV) straightened by an alkaline hair-straightening product (Goldys—2% active sodium hydroxide) is the following composition, with an amount of product/amount of hair ratio (g/g) of 2, without rinsing: • 5% by weight of compound (2) from Example 2 • qs for 100% distilled water
Observations are made at T0.
The locks are then washed once or 5 times using Ultra Mild shampoo (Garnier), then dried. Observations are made at T1 (after 1 shampoo wash) and at T5 (after 5 shampoo washes).
The control locks are treated with a composition comprising 100% distilled water.

[2] = Porosity measurement of the locks of hair using a fluorescent probe; details: after 5 shampoo washes, 5% by weight in distilled water

## Cc1cc(=O)nc(NC(=O)NCCCN(C)C)[nH]1 [Compound 2, N-[3-(dimethylamino)propyl]-N′-(6-methyl-4-oxo-1,4-dihydropyrimidin-2-yl)urea]
[1]; T0, product/hair ratio 2 g/g, no rinsing, hair straightened with 2% sodium hydroxide product
  hair-straightening efficiency compared to control post-treatment (distilled water): improved
[1]; T1 (after 1 shampoo wash) and T5 (after 5 shampoo washes)
  persistence of the improvement in hair-straightening efficiency after shampoo washes: persists
[2]
  internal porosity of the hair versus control hair: equivalent porosity
